System: neutral sphingomyelinase
Assay: Sphingomyelinase Assay: neutral sphingomyelinase inhibition, release of 14C-phosphocholine from 14C-sphingomyelin, U937 cell lysate
Format: biochemical
Conditions: for percentage of enzyme inhibition: highest concentration tested (100 uM), IC50 not determined, U937 cell lysate, 1 hour at 37; for IC50: U937 cell lysate as enzyme, 14C-sphingomyelin substrate, pH 7.5, 1 hour at 37
Method: Neutral sphingomyelinase is an enzyme that cleaves sphingomyelin to yield ceramide and phosphocholine. […] After cleavage, an extraction separates the labeled, water-soluble phosphocholine from the intact substrate and the ceramide.
Cell Iysates are made by nitrogen cavitation of harvested cells in Buffer A (20 mM Tris, pH 7.4, 250 mM sucrose, 10 mM EGTA, 10 ug/ml leupeptin, 1 mM PMSF, […]). Lysates are flash frozen and stored at -40 C.
Substrate Preparation: N-methyl-^14 C-sphingomyelin (specific activity 50 mCi/mM) and phosphatidylinositol are evaporated under a stream of nitrogen and resuspended at an equimolar concentration of 0.1 mM in water with 0.5% Triton X-100. The solution is vortexed for 30 minutes and then sonicated for 30 minutes.
Sphingomyelinase Assay: The reaction mixture contains 25 ul 2X Tris Mg buffer (200 mM Tris-HCl, pH 7.5. 160 mM MgCl), 10 ul ^14 C-sphingomyelin substrate, 10 ul lysate (enzyme) and 5 ul test compound or vehicle for a final volume of 50 l. The assays are carried out in 1.5 ml microcentriftige tubes and are incubated for 1 hour at 37. The reaction is stopped with 30 l of water and 175 l chloroform/methanol (2:1, v:v). The tubes arc vortexed vigorously, centrifuged for 5 minutes in a microfuge at maximum speed and 50 l of the upper, aqueous phase is counted in a liquid scintillation counter. Alternatively, the assay may be set up in wells of a 96-well PCR plate in identical proporations to a total volume of 50 l. Then the plates are incubated at 37 C incubator for 1 hour. H2 O (30 l) is added to all plates and the plates are again incubated for 1 hour. Chloroform-methanol (2:1) is added in a volume of 175 l followed by vigorous mixing. The plates are sealed with adhesive covers and centrifuged at 3000 rpm for 10 minutes at 5 C. The plates are uncovered and 50 µl of upper, aqueous phase is transferred to a Flashplate™(NEN) scintillation proximity assay plate. The Flashplates are dried overnight, sealed, and counted using a Topcount scintillation counter.
Compounds that are antagonists of neutral sphingomyelinase are reported as a positive value for inhibition in Table 4.

| IC50 | SMILES | percentage of enzyme inhibition |
| --- | --- | --- |
| – | C[C@@H](O)[C@@H](C(=O)O)N(C/C=C/c1cccc2ccccc12)C/C=C/c1cccc2ccccc12 [Compound 10] | 21% |
| – | C[C@@H](C(=O)O)N(C/C=C/c1ccnc2ccccc12)C/C=C/c1ccnc2ccccc12 [Compound 13] | < 5% |
| 19 µM | COC(=O)[C@H](CO)[N+](C)(C/C=C/c1cccc2ccccc12)C/C=C/c1cccc2ccccc12 [Compound 14] | – |
| 28 µM | CC(C(=O)OC(C)(C)C)[N+](C)(CC=Cc1cccc2ccccc12)CC=Cc1cccc2ccccc12 (centres unmarked) [Compound 15] | – |
| – | C[N+](C/C=C/c1cccc2ccccc12)(C/C=C/c1cccc2ccccc12)[C@@H](CO)C(=O)O [Compound 16] | 24% |
| 10 µM | C[C@@H](C(=O)O)N(CC#Cc1cccc2ccccc12)CC#Cc1cccc2ccccc12 [Compound 17, Alanine, N,N-Bis[3-(1-naphthalenyl)-2-propynyl]--] | – |
| – | O=C(O)C(CO)N(CC#Cc1cccc2ccccc12)CC#Cc1cccc2ccccc12 (centres unmarked) [Compound 18] | < 5% |
| – | COc1ccc(C#CCN(CC#Cc2ccc(OC)cc2)[C@@H](C)C(=O)O)cc1 [Compound 19] | 27% |
| – | CC(C(=O)O)N(Cc1cccc2ccccc12)Cc1cccc2ccccc12 (centres unmarked) [Compound 20] | < 5% |
| – | O=C(O)C(CO)N(Cc1cccc2ccccc12)Cc1cccc2ccccc12 (centres unmarked) [Compound 21] | < 5% |
| – | O=C(O)C(CO)N(CCc1cccc2ccccc12)CCc1cccc2ccccc12 (centres unmarked) [Compound 22] | < 5% |
| 89 µM | O=C(O)C(CO)N(CCCc1cccc2ccccc12)CCCc1cccc2ccccc12 (centres unmarked) [Compound 23] | – |
| – | CC(C(=O)OC(C)(C)C)N(CC=Cc1ccnc2ccccc12)CC=Cc1ccnc2ccccc12 (centres unmarked) [Compound 24] | < 5% |
| – | CC(C(=O)O)N(CCc1cccc2ccccc12)CCc1cccc2ccccc12 (centres unmarked) [Compound 25] | < 5% |

— patent publication US6306911A, “Substituted amino acids as neutral sphingomyelinase inhibitors” (Ortho-McNeil Pharmaceutical, Inc., priority 2000, dated 2001)
